The source of these data is paper PMC11213822, “Copper resistance in the cold: Genome analysis and characterisation of a PIB‐1 ATPase in Bizionia argentinensis” (Environmental Microbiology Reports, 2024).

For data set [1], the target named is T1, BaCopA1 (Bizionia argentinensis, UniProt G2EDW3).
T1 construct: gene BZARG_1779; C-terminal TEV site-GFP-His tag not removed (tag printed as His6 and his8); expressed in S. cerevisiae FGY217, detergent-solubilised, Ni-NTA purified in C12E10
Briefly: time course of Pi release, malachite green. It counts as biochemical. As to conditions: 2.0 mM ATP, 2.0 mM MgCl2, 0.1 mM CuSO4, 20 mM cysteine, pH 8.0, 5 °C; 10 μM vanadate.

Substrate in data set [2]: Nc1ncnc2c1ncn2[C@@H]1O[C@H](COP(=O)(O)OP(=O)(O)OP(=O)(O)O)[C@@H](O)[C@H]1O
The data set is described as follows: purified protein. As to conditions: free Mg2+ 0.25 mM, 0.1 mM CuSO4, 20 mM cysteine, asolectin/C12E10, pH 8.0, 5 °C.

For orientation: Km means the concentration of substrate that gives half-maximal velocity.

Turning to `[O]=[V]([OH])([OH])[OH]` [vanadate], the “inhibition at 10 μM” value in data set [1] was “an inhibitory effect of ATPase activity occurs with the addition of vanadate”.

B1: BaCopA1 (Bizionia argentinensis JUB59) (protein)
chain: MTCNGCRSHVEEILSKVKYVLKASVDLEKEEATIEMESHIPIEKFQNALKNDGGRYSIHKNPLPGSPKGRSNKTDKSKSEKSPLRGLGDTFYCPMHCEGDKIYDKPGDCPVCGMDLVEEQNLSTSNSEQWTCPMHPEVVKDEAGPCPICGMDLVPMQADSSAEEKTYKKLLKKFWIASIFTLPIFIMAMSEMLTNNPLYDIMDQKNWNWVQFALSIPVVFYATWMFFERAYKSIKTWNLNMFTLIGIGAGVAWLFSVFGMFFPDVFPSQFRSESGAVHVYFEAATVILTLVLLGQLLEARAHSKTNSAVKELLKLAPNKATKVVNGEDVEVSIDNIELNDILKVKPGDKIPVDGVITEGVTTIDESMITGEPVPVDKTEGDKVSSGTINGNQSFLMKAEKVGSHTLLSQIIHMVNTASRSRAPIQNLADKVSGYFVPVVVLISLITFAVWAIWGPEPAYVYALVNAIAVLIIACPCALGLATPMSVMVGVGKGAQNGVLIKNAEALEKLDKVDTLIVDKTGTITEGKPTVEKMGAFSDVFSESDVLQYIVSLNSNSEHPLAEATVKYGKEQKAEIIKSDAFSAVTGKGVEATINNKKVALGNPKMMEYAQAEITSQMQDEAKTYQKQGKTVSYLAIDKIVIGYVVIGDKIKATSAKAIKELQDKGIAVIMLTGDNHDTAQAVASELNLADFKASMLPEDKLKEVEKLQKEGKVVAMAGDGINDAPALAKSDVGIAMGTGTDVAIESAMITLVKGDLNGIVKAKHLSHAVMKNIKQNLFFALIYNTLGVPIAAGVLFPIFGILLSPMIAALAMSFSSVSVIANALRLRTIKI
Regarding B1, the Km in data set [2] worked out at 0.15 ± 0.03 mM.
